Reference: patent publication US7871981B2, “Inhibition of cell motility, angiogenesis, and metastasis” (The United States of America as represented by the …, priority 1999, dated 2011)

Experiments:
TAC-2 cells = experiment: Epithelial tube formation assay, TAC-2 cells in collagen gels; type: cell-based
Protocol: TAC-2 cells were suspended in three-dimensional collagen gels at 1×10^4 cells/ml in collagen and incubated in complete medium containing HGF and/or Grb2 inhibitors as indicated. After 3 days, the cultures were fixed with 2.5% glutaraldehyde in 0.1 M cacodylate buffer, and at least 3 randomly selected fields per experimental condition in each of 3 separate experiments were digitally recorded with brightfield microscopy. The total length of the cords in each individual colony present in each optical field was measured with IPLab. Cord length was considered as “0” in: a) colonies with a spheroidal shape, and b) slightly elongated structures in which the length to diameter ratio was less than 2. The mean values for each experimental condition were compared to controls using the Student's unpaired t-test. Results in FIG. 5 are described as mean total cord length (in μm) per field.

HUVE cells [1] = experiment: HUVE cell migration, modified Boyden chamber; type: cell-based, human
Protocol: (§1) The migration assay of HUVE and HMEC-1 cells in modified Boyden chambers was adapted from previously described procedures (Murohara et al., Thromb. Vasc. Biol., 19: 1156-61 (1999), Malinda et al., FASEB J., 13: 53-62 (1999)). In brief, Biocoat Cell Environment control inserts (8 micron pore size; Becton Dickinson) were coated with 0.1% gelatin (Sigma) for at least 1 hour at 37° C. and air dried. Lower chambers contained 0.7 ml RPMI+0.1% BSA, to which 20 ng/ml HGF and/or 300 nM Grb2 inhibitors were added. Cells were pre-treated with the indicated concentrations of Grb2 inhibitors for 18-24 hours, trypsinized, washed twice in RPMI+0.1% BSA, added to upper chambers (5×10^4 cells/well) with or without inhibitors in a final volume of 0.5 ml, and incubated for 4 h at 37° C. Cells on the upper surface of each filter were removed with a cotton swab, while cells that had traversed to the bottom surface of the filter were fixed and stained using Diff-Quik (Dade Diagnostics) and counted using a 10× objective. Mean values from 4 randomly selected fields (1×1.4 mm) were calculated for each of triplicate wells per experimental condition. Shown in FIG. 6 is the ratio of growth factor-treated to control migrating cells designated on the y-axis as “Migration (Fold Increase)” or as the mean number of cells per optical field in FIGS. 8-11.

HMVE cells [2] = experiment: HMVE cell migration, modified Boyden chamber; type: cell-based, human
Protocol: as §1

HUVE cells [3] = experiment: HUVE cell proliferation; type: cell-based, human
Protocol: (§2) HUVE or HMVE cells were seeded per triplicate in type I collagen-coated 48-well plates (Biocoat) (3000 cells/well) in […] of complete EGM-Bullet Kit medium (BioWhittaker, Walkersville, Md.), allowed to attach for 4 hr and incubated overnight with or without the indicated concentrations of peptide 2. The cultures were rinsed twice in serum-free medium and incubated with EBM medium (BioWhittaker) supplemented with 50 μg/ml heparin, 50 μg/ml ascorbic acid and 10% FCS. After either 4 days (HUVE) or 5 days (HMVE), cells were harvested with trypsin/EDTA and counted with an hemocytometer. The mean number of cells per ml was calculated from 3 independent measures for each of triplicate wells per experimental condition and compared to controls using the Student's unpaired t-test. Results set forth in FIG. 12 are described as the ratio of growth factor-treated to control proliferating cells designated on the y-axis as “Proliferation (Fold Increase)”.

HMVE cells [4] = experiment: HMVE cell proliferation; type: cell-based, human
Protocol: as §2

PC3M cells = experiment: PC3M cell invasion across Matrigel-coated Transwell filters; type: cell-based, human; details: increasing concentrations, with or without HGF 40 ng/ml, 30 h
Protocol: After serum deprivation and pre-treatment for 16 hrs, PC3M cells were assayed in cell culture inserts (BD Biosciences), 8 micron-pore-size polyethylene terephthalate membrane with Falcon cell culture inserts (Becton Dickinson). Pre-treated cells were trypsinized and counted; a total of 1×10^5 cells in serum free medium (500 microliters) were added to the upper chamber, and 500 microliters of serum free media with the relative concentration of C90 and HGF were added to the lower chamber. […] Then the cells in the inside of the upper chamber were removed with a cotton swab and cell on the other side of the membrane were fixed and stained using Diff-Quick (Dade Diagnostics, Deerfield, Ill.). Photographs of […] random fields were taken and cells were counted by bright field microscopy using a 10× objective. Mean values from four randomly selected fields (1×1.4 mm) were calculated for each of triplicate wells per experimental condition.
FIG. 13B depicts bar graphs of PC3M cell invasion across Matrigel-coated Transwell filters in the presence (filled bars) or absence (unfilled bars) of HGF (40 ng/ml, 30 h).

PC3M-luc cells = experiment: Subcutaneous tumor model (spontaneous metastasis), PC3M-luc xenograft, bioluminescence imaging; type: in vivo, SCID/beige mice; details: cells pre-treated 24 h with 1 micromolar
Protocol: PC3M-luc cells were pre-treated for 24 hrs with 1 micromolar C90, then trypsinized, washed in PBS and spun down at 650 rpm to be resuspended in HBSS at the appropriate cell density for injection (1×10^6 cells). Injection was boosted with 10 micromolar C-90. Cell where then injected in the right flank SCID/beige mice (Taconic Inc., Germantown, N.Y.). On indicated days, mice were injected with 150 mg/kg of D-luciferin (potassium salt, Xenogen Corp., Alameda, Calif.) and placed for imaging in the In vivo Imaging System (Xenogen) with total imaging time of 1 or 5 minutes. Total body bioluminescence was quantified by integrating the photonic flux (photons per second) through a region of interest drawn around each mouse.
(§3) Cells prepared for xenograft injections were pretreated with C-90 for 24 h. Cells were injected in to mice (5 per group) by either tail vein (B16-luc, induced metastasis model) or subcutaneously (PC3M-luc, spontaneous metastasis model). Imaging of the PC3M cell metastases in lungs ex vivo (FIG. 14A)) correlated with earlier scans of intact animals (data not shown). Units are proportional to photons emitted within a defined time interval (total flux).

B16-luc cells = experiment: Tail vein model (induced metastasis), B16-luc, bioluminescence imaging; type: in vivo, SCID/beige mice; details: single 24 h pre-treatment, three week period
Protocol: B16-luc cells were pre-treated for 24 hrs with 1 micromolar C90, then trypsinized, washed in PBS and spun down at 650 rpm to be resuspended in HBSS at the appropriate cell density for injection (1×10^6 cells). Injection was boosted with 10 micromolar C90. Cell where then injected in the dorsal tail vein of severe combined immunodeficient (SCID)/beige mice (Taconic Inc., Germantown, N.Y.).
as §3

B16 mouse melanoma cells = experiment: Growth rate and viability in culture of C-90 treated B16 cells; type: cell-based; details: same study period

NC(=O)C[C@H](NC(=O)C1(NC(=O)[C@H](Cc2ccc(C(C(=O)O)C(=O)O)cc2)NC(=O)C(=O)O)CCCCC1)C(=O)NCCCc1cccc2ccccc12 [peptide 2, (N-oxalyl-4-malonyl)-Phe-Ac6c-Asn-NH-(3-naphthalen-1-yl-propyl)]
HGF-induced elongation of epithelial tubes (cord length) (TAC-2 cells; HGF 20 ng/ml, 3 days): significantly (p<0.0001) abrogate
concentration at which a sub-maximal inhibitory effect is already observed (TAC-2 cells; HGF-induced tube elongation): 30 nM
VEGF-induced cell migration (HUVE cells [1]; VEGF): significantly (p<0.001) reverted
PMA-induced cell migration (HUVE cells [1]; peptide 300 nM, PMA 40 ng/ml): dramatically reverted to basal levels
VEGF-induced cell migration (HMVE cells [2]; VEGF): significantly (p<0.001) reverted
cell migration induced by HGF (HMVE cells [2]; peptide 300 nM, HGF 0-50 ng/ml): abolished
abolition of the effect of the optimal concentration of bFGF (HMVE cells [2]; peptide 300 nM, bFGF 5 ng/ml): 72%
biphasic stimulatory activity of bFGF on migration (HMVE cells [2]; peptide 300 nM, bFGF 0.2-50 ng/ml): significantly (p<0.001) inhibited
HGF- VEGF-induced HUVE cell proliferation (HUVE cells [3]; peptide 30 nM): failed to significantly (p=0.05) inhibit
bFGF-dependent HUVE cell proliferation (HUVE cells [3]; peptide 30 nM, p<0.0001): inhibited
serum-dependent HUVE cell proliferation (HUVE cells [3]; peptide 30 nM, p<0.001): inhibited
HGF- VEGF-induced HUVE cell proliferation (cell counts) (HUVE cells [3]; peptide 300 nM): significant (p<0.0001) reduction in cell counts
HMVE cell growth (HMVE cells [4]; peptide 30 nM, presence and absence of growth factors): basically resistant
HMVE cell growth (HMVE cells [4]; peptide 300 nM): highly significant (p<0.001) inhibition of cell growth
PC3M cell invasiveness in vitro (PC3M cells): dose-dependent inhibition
primary tumor growth (mass, volume ex vivo) (PC3M-luc cells): did not affect primary tumor growth
metastatic rate (lung metastases ex vivo, total flux) relative to untreated control cells (PC3M-luc cells; injection boosted with 10 micromolar): significantly reduced the metastatic rate
ability to form lung metastases relative to untreated control cells (B16-luc cells): significantly reduced ability to form lung metastases
cell viability or growth rate in culture (B16 mouse melanoma cells): no differences in cell viability or growth rate
